Legend:
Details in all cases: in vivo; call rule not given here
[1] = system: Brain; assay: Drug uptake in cynomolgus monkey brain assessed as dopamine synthesis after 60 to 90 mins by PET imaging analysis in presence of carbidopa; format: ADME, tissue-based, Macaca fascicularis
[2] = Drug uptake in cynomolgus monkey cerebellum after 60 to 90 mins by PET imaging analysis; format: ADME, tissue-based, Macaca fascicularis
[3] = Drug uptake in cynomolgus monkey cerebellum after 40 to 60 mins by PET imaging analysis; format: ADME, tissue-based, Macaca fascicularis
[4] = Drug uptake in cynomolgus monkey striatum after 60 to 90 mins by PET imaging analysis; format: ADME, tissue-based, Macaca fascicularis
[5] = Drug uptake in cynomolgus monkey striatum after 40 to 60 mins by PET imaging analysis; format: ADME, tissue-based, Macaca fascicularis
[6] = Drug uptake in cynomolgus monkey striatum after 10 mins by PET imaging analysis; format: ADME, tissue-based, Macaca fascicularis
[7] = Drug uptake in cynomolgus monkey cerebellum after 5 mins by PET imaging analysis; format: ADME, Macaca fascicularis
[8] = Drug uptake in cynomolgus monkey cortex after 60 to 90 mins by PET imaging analysis; format: ADME, tissue-based, Macaca fascicularis
[9] = Half life in cynomolgus monkey cerebellum by PET imaging analysis; format: ADME, tissue-based, Macaca fascicularis

| Drug uptake [1] | Drug uptake [2] | Drug uptake [3] | Drug uptake [4] | Drug uptake [5] | Drug uptake [6] | Drug uptake [7] | Drug uptake [8] | t1/2 [9] | SMILES |
| --- | --- | --- | --- | --- | --- | --- | --- | --- | --- |
| Active | Active | Active | Active | Active | Active | Active | Active | 50 min | N[C@@H](Cc1cc(O)c(O)cc1[18F])C(=O)O [FLUORODOPA F 18] |
| Active | Active | Active | Active | Active | Active | Active | Active | 30 min | [11CH3]c1ccc(O)cc1C[C@H](N)C(=O)O |
